Where “and” joins values, the source holds several entries; their conditions need not be identical. Equal values may be shown once.
Tested on: 653999-131-R-J2-PDC complex spheroids, growth % test/control
Test: Anticancer human tumor 653999-131-R-J2-PDC patient-derived lung adenocarcinoma cell line growth inhibition [AhR]
Conditions: for viability, T/C: stronger effect = lower value; for IC50: curve of first compound
Description: Multicellular complex tumor spheroid response to aryl hydrocarbon receptor antagonists in combination with a variety of drugs and investigational agents in selected tumor cell lines
The current study was undertaken to assess response to aryl hydrocarbon receptor antagonists in combination with standard-of-care drugs and investigational agents in solid tumor complex spheroid models. Complex spheroids include a stromal component modeled by human endothelial cells (HUVEC) and fibroblasts modeled by human mesenchymal stem cells (MSCs). The concentration ranges selected for each drug and investigational agent were based upon clinically achievable concentrations if the clinical Cmax of the agent was known.
Compounds. The drugs and investigational agents: BAY 2416964 (NSC825713), GNF351 (NSC835774), CH-223191 (NSC835775), CPI-455 (NSC825282), aza-TdCyd (NSC777586), decitabine (NSC127716), belinostat (NSC758774), entinostat (NSC756642), pevonedistat (NSC761192), tazemetostat (NSC777109), talazoparib (NSC765396), olaparib (NSC753686), selinexor (NSC780203), nedisertib (M3814, NSC802822), bortezomib (NSC756655), venetoclax (NSC766270), doxorubicin (NSC123127), elimusertib (BAY189344, NSC800525), ceralasertib (AZD6738, NSC777638), TAK-243 (NSC785004), alisertib (NSC759677), etoposide (NSC141540), topotecan (NSC609699), eribulin (NSC707389), gemcitabine (NSC613327), carboplatin (NSC241240), cisplatin (NSC119875), and SN-38 (NSC673596) were obtained from the National Cancer Institute (NCI) Developmental Therapeutics Program Chemical Repository (32). The FDA-approved anticancer drug set is available from the Developmental Therapeutics Program at https://dtp.cancer.gov/organization/dscb/obtaining/available plates.htm. […] The stock solutions were prepared in dimethyl sulfoxide (DMSO, Sigma-Aldrich, St. Louis, MO, cat. D2650), except for the platinum compounds which were prepared in saline (Quality Biological, Gaithersburg, MD, cat. 114-055-101), at 800-fold the tested concentration and stored at -70 degrees C prior to their use. All drugs and investigational agents were tested over a range starting from a high concentration at or near the clinical Cmax and decreasing in half-log increments. If the clinical Cmax for an agent had not been determined, the highest concentration tested was 10 microM (Table 1).
Cell Culture. All cells were maintained in an incubator at 37 degrees C and 5% CO2 with 95% humidity. The PDC lines were cultured according to standard operating procedures established by the NCI PDMR (https://pdmr.cancer.gov). Briefly, all PDCs were thawed and cultured in Matrigel-coated flasks prepared with a working solution of 1X Ham's F-12 nutrient mix, without supplementation (Invitrogen, Waltham, MA, cat. 11765054), 100 U/mL penicillin-streptomycin (Invitrogen, cat. 15140122), and 2.5% Matrigel (Corning Inc., Corning, NY, cat. 354248) for the first three passages. All PDCs were cultured in complete DMEM/F-12 media containing advanced DMEM/F-12 (Invitrogen, cat. 12634028), 4.9% defined fetal bovine serum, heat inactivated (HyClone Laboratories Inc., Logan, UT, cat. SH30070.03HI), 389 ng/mL hydrocortisone (Sigma-Aldrich, cat. H4001), 9.7 ng/mL human EGF recombinant protein (Invitrogen, cat. PHG0313), 23.4 microg/mL adenine (Sigma-Aldrich, cat. A2786), 97.3 U/mL penicillin-streptomycin (Invitrogen, cat. 15140122), 1.9 mM L-glutamine (Invitrogen, cat. 25030081), and 9.7 microM Y-27632 dihydrochloride (Tocris Bioscience, Bristol, United Kingdom, cat. 1254). The PDCs were cultured in complete DMEM/F12 media without 10 microM Y-27632 dihydrochloride for at least two passages prior to the screen. The established cell lines NCI-H1341 and […] were cultured in DMEM/F-12, HEPES (Invitrogen, cat. 11330032), 5% defined fetal bovine serum (HyClone Laboratories Inc., cat. SH30070.03), ITS premix universal culture supplement [insulin (5 microg/mL), transferrin (5 microg/mL), and selenious acid (5 ng/mL)] […]

[1] = second compound 0.1 µM, first compound 0.0316 µM
[2] = second compound 0.1 µM, first compound 0.1 µM
[3] = second compound 0.1 µM, first compound 0.316 µM
[4] = second compound 0.1 µM, first compound 1 µM
[5] = second compound 0.1 µM, first compound 3.16 µM
[6] = second compound 0.1 µM, first compound 10 µM
[7] = second compound 0.316 µM, first compound 0.0316 µM
[8] = second compound 0.316 µM, first compound 0.1 µM
[9] = second compound 0.316 µM, first compound 0.316 µM
[10] = second compound 0.316 µM, first compound 1 µM
[11] = second compound 0.316 µM, first compound 3.16 µM
[12] = second compound 0.316 µM, first compound 10 µM
[13] = second compound 1 µM, first compound 0.0316 µM
[14] = second compound 1 µM, first compound 0.1 µM
[15] = second compound 1 µM, first compound 0.316 µM
[16] = second compound 1 µM, first compound 1 µM
[17] = second compound 1 µM, first compound 3.16 µM
[18] = second compound 1 µM, first compound 10 µM
[19] = second compound 3.16 µM, first compound 0.0316 µM
[20] = second compound 3.16 µM, first compound 0.1 µM
[21] = second compound 3.16 µM, first compound 0.316 µM
[22] = second compound 3.16 µM, first compound 1 µM
[23] = second compound 3.16 µM, first compound 3.16 µM
[24] = second compound 3.16 µM, first compound 10 µM
[25] = second compound 10 µM, first compound 0.0316 µM
[26] = second compound 10 µM, first compound 0.1 µM
[27] = second compound 10 µM, first compound 0.316 µM
[28] = second compound 10 µM, first compound 1 µM
[29] = second compound 10 µM, first compound 3.16 µM
[30] = second compound 10 µM, first compound 10 µM
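Also: spheroids exposed to agents for seven days.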

Structure (SMILES) | IC50 (second compound 0.1 µM) [µM] | IC50 (second compound 0.316 µM) [µM] | IC50 (second compound 1 µM) [µM] | IC50 (second compound 3.16 µM) [µM] | IC50 (second compound 10 µM) [µM] | viability, T/C [1] [%] | viability, T/C [2] [%] | viability, T/C [3] [%] | viability, T/C [4] [%] | viability, T/C [5] [%] | viability, T/C [6] [%] | viability, T/C [7] [%] | viability, T/C [8] [%] | viability, T/C [9] [%] | viability, T/C [10] [%] | viability, T/C [11] [%] | viability, T/C [12] [%] | viability, T/C [13] [%] | viability, T/C [14] [%] | viability, T/C [15] [%] | further results
Nc1ccn(C2OC(CO)C(O)C2(F)F)c(=O)n1 (stereo unspecified) | – | – | – | – | – | – | – | – | – | – | – | – | – | – | – | – | – | – | – | – | viability, T/C (compound 0.0316 µM): 69.1% and 74.2% and 70.3%; viability, T/C (compound 0.1 µM): 63.2% and 70.2% and 62.9%; viability, T/C (compound 0.316 µM): 50.8% and 61.3% and 51.9%; viability, T/C (compound 1 µM): 41.5% and 56.2% and 43.5%; viability, T/C (compound 3.16 µM): 37.6% and 50.8% and 41.3%; viability, T/C (compound 10 µM): 32.7% and 46.7% and 36.1%
CC1(C)CCC(CN2CCN(c3ccc(C(=O)NS(=O)(=O)c4ccc(NCC5CCOCC5)c([N+](=O)[O-])c4)c(Oc4cnc5[nH]ccc5c4)c3)CC2)=C(c2ccc(Cl)cc2)C1 + Cc1ccccc1N=Nc1ccc(NC(=O)c2ccnn2C)c(C)c1 | > 10 | > 10 | > 10 | > 10 | > 10 | 100 | 99.1 | 103 | 95.1 | 97.7 | 68.7 | 88.8 | 90.6 | 97.7 | 86 | 92.1 | 64.7 | 99 | 93.1 | 89 | viability, T/C [16]: 99.4%; viability, T/C [17]: 91.7%; viability, T/C [18]: 73.8%; viability, T/C [19]: 99.5%; viability, T/C [20]: 90.2%; viability, T/C [21]: 94.3%; viability, T/C [22]: 90%; viability, T/C [23]: 85.6%; viability, T/C [24]: 80.8%; viability, T/C [25]: 84%; viability, T/C [26]: 94.7%; viability, T/C [27]: 83.9%; viability, T/C [28]: 88.9%; viability, T/C [29]: 81%; viability, T/C [30]: 80.5%
COc1ccc([C@@H](O)c2cc(-c3ncnc4cc(N5CCOCC5)ccc34)c(F)cc2Cl)nn1 + CC(CO)NC(=O)c1cc(-c2ccc(Cl)cc2)nn(-c2cnn(C)c2)c1=O | 8.45 | 7.79 | 8.13 | 7 | 6.94 | 91.5 | 86.9 | 85.4 | 73.6 | 63.9 | 47.6 | 89.9 | 90.2 | 87.8 | 80 | 66.8 | 45.2 | 90.4 | 95.4 | 95.2 | viability, T/C [16]: 84.5%; viability, T/C [17]: 65.4%; viability, T/C [18]: 46.6%; viability, T/C [19]: 96%; viability, T/C [20]: 96.8%; viability, T/C [21]: 100%; viability, T/C [22]: 77.4%; viability, T/C [23]: 60.3%; viability, T/C [24]: 45.4%; viability, T/C [25]: 90%; viability, T/C [26]: 95.3%; viability, T/C [27]: 90.8%; viability, T/C [28]: 75.3%; viability, T/C [29]: 59.5%; viability, T/C [30]: 45.6%
NS(=O)(=O)OCC1CC(n2ccc3c(NC4CCc5ccccc54)ncnc32)CC1O (stereo unspecified) + Cc1cncc(-c2nc(NCCc3c[nH]c4ccccc34)c3ncn(C(C)C)c3n2)c1 | 6.2 | 1.78 | > 10 | 0.948 | < 0.0316 | 108 | 106 | 101 | 71.4 | 50.4 | 49.8 | 113 | 112 | 106 | 52.2 | 48.4 | 47.2 | 112 | 120 | 108 | viability, T/C [16]: 49.3%; viability, T/C [17]: 50.5%; viability, T/C [18]: 51.2%; viability, T/C [19]: 117%; viability, T/C [20]: 104%; viability, T/C [21]: 90.5%; viability, T/C [22]: 46.8%; viability, T/C [23]: 40.5%; viability, T/C [24]: 43.3%; viability, T/C [25]: 44.4%; viability, T/C [26]: 38%; viability, T/C [27]: 39.4%; viability, T/C [28]: 22.3%; viability, T/C [29]: 18.5%; viability, T/C [30]: 19.4%
CC1COCCN1c1cc(C2(S(C)(=N)=O)CC2)nc(-c2ccnc3[nH]ccc23)n1 (stereo unspecified) + CC(CO)NC(=O)c1cc(-c2ccc(Cl)cc2)nn(-c2cnn(C)c2)c1=O | 8.97 | > 10 | > 10 | 7.88 | 3.94 | 102 | 97.6 | 97.8 | 87.3 | 75.2 | 47.1 | 101 | 95.6 | 103 | 83.3 | 71.3 | 52.6 | 101 | 95.4 | 101 | viability, T/C [16]: 91%; viability, T/C [17]: 73.9%; viability, T/C [18]: 51.5%; viability, T/C [19]: 92.7%; viability, T/C [20]: 107%; viability, T/C [21]: 100%; viability, T/C [22]: 88.8%; viability, T/C [23]: 55.6%; viability, T/C [24]: 48.5%; viability, T/C [25]: 111%; viability, T/C [26]: 98.5%; viability, T/C [27]: 100%; viability, T/C [28]: 78%; viability, T/C [29]: 51.5%; viability, T/C [30]: 41.8%
